Measured values reported in publication PMC6630837 (Pharmaceuticals, 2019).

Experiments:
[1] = test system: SH-SY5Y human neuroblastoma cells; test: Neuroprotection against H2O2-induced toxicity, MTT cell viability assay; assay type: cell-based; details: 50 μM compound, 100 μM H2O2, 24 h, 37 °C
Excerpt: Neuroprotective activity assays against H2O2-induced toxicity. On the basis of previously described protocols, the flavones and analogues herein synthesized were screened for their neuroprotective effects against H2O2-induced oxidative stress and neuronal damage in SH-SY5Y human neuroblastoma cells by means of a thiazolyl blue tetrazolium bromide (MTT) reduction-based cell viability assay.
Neuroprotective assays in human neuroblastoma (SH-SY5Y) cells. […] Differences were considered significant when P < 0.05.

[2] = test system: SH-SY5Y neuroblastoma cells; test: Cytotoxic activity of compounds alone, MTT cell viability assay; details: 50 μM compound alone, 24 h, 37 °C, 0.5% DMSO, SH-SY5Y
Experimental: Neuroprotective assays in human neuroblastoma (SH-SY5Y) cells. SH-SY5Y cells were grown in Dulbecco’s Modified Eagle Medium (DMEM, Gibco, Life Technologies) supplemented with 10% fetal bovine serum (FBS, Biochrom GmbH) and 1% Penicillin-Streptomycin (Gibco, Life Technologies) in a humidified incubator at 37 °C, 5% CO2. For the neuroprotective activity assay, undifferentiated SGSY-5Y cells were plated onto 96-well flat-bottomed microtiter plates at a density of 1 × 10^4 cells/well in DMEM supplemented with 2% FBS and preincubated for 24 h at 37 °C, 5% CO2. Compounds (stored as 10 mM solutions in DMSO at −20 °C) were then added to achieve a final concentration of 50 μM and, after 30 min, cells were incubated in the presence or absence of 20 μM Aβ protein fragment 1-42 (Sigma-Aldrich, dissolved in DMSO and stored in 2 mM aliquots at −20 °C) or 100 μM of H2O2 (Sigma-Aldrich, dissolved to 10 mM in 0.9% NaCl aqueous solution immediately prior to the assay) overnight at 37 °C, 5% CO2. […] The following morning, 20 μL of a 5 mg/mL solution of 3-(4,5-dimethylthiazol-2-yl)-2,5-diphenyltetrazolium bromide (MTT, Sigma-Aldrich) in PBS (Gibco, Life Technologies) was added to each well and the plates were further incubated for 4 h at 37 °C, followed by the addition of DMSO (200 μL) to each well in order to dissolve the resulting formazan crystals. After 2 h incubating at 37 °C, the optical density (OD) at 540 nm (with a 620 nm reference filter) was measured in an Amersham Biosciences Biotrak II Plate Reader. The percentage of MTT reduction was determined according to Equation (1). […] Differences between experimental conditions were compared for statistical significance by one-way ANOVA followed by a Tukey’s post-test, an analysis carried out using GraphPad Prism Software (LA Jolla, CA, USA). Differences were considered significant when P < 0.05. In order to exclude direct MTT reduction, compounds were also tested in (a) the absence of cells and (b) in the absence of both cells and culture medium, using the same experimental conditions described above. (2) MTT Reduction (% of Control)=[ODsample−ODmedium/ODcell control−ODmedium] × 100 […]
Tabl e S2. Cytotoxic activity of each compound assessed in SH-SY5Y neuroblastoma cells via an MTT cell viability assay.a Comp ound Nr. MTT reduction (% control) p-va l u e vs . untreated cell control (unpai red t-t es t) […]
a Cells were incubated for 24 h at 37 °C, in the presence (50 μM) or absence of each compound.

[3] = target: acetylcholinesterase (AChE) (Electrophorus electricus, UniProt O42275); test: Acetylcholinesterase inhibition, Ellman's colorimetric assay; assay type: biochemical; details: 100 µM compound; read-out: AChE inhibitory efficacy (percentage of inhibition)
Experimental: For cholinesterase inhibition tests (acetylcholinesterase (AChE, electrophorus
was kept within 1.25% cuvette concentration.
AChE and at 18.2 µM concentration for BuChE. […]

[4] = Cell viability (MTT) assay in HepG2 cells; assay type: cell-based, human; details: human; HepG2 cells, 0.1 μM to 100 μM; read-out: IC50 (cytotoxicity)
Experimental: (§1) Cell viability assay in human epithelial colorectal adenocarcinoma (Caco-2) and human liver hepatocellular (HepG2) cells. Caco-2 and HepG2 Cells were cultured in DMEM-Dulbecco’s modified Eagle’s medium (Sigma-Aldrich) supplemented with 10% (v/v) inactivated fetal bovine serum (PAA Laboratories GmbH), 2 mM L-glutamine (Sigma-Aldrich), 100 U/mL penicillin and 100 μg/mL streptomycin (Sigma-Aldrich), in a humidified incubator at 37 °C with a 5% CO2 atmosphere. Cells (3 × 10^4 cells/well) were seeded into 96-well plates and incubated at 37 °C in 5% CO2 atmosphere. After 24 h, compounds were added at different concentrations (0.1–100 μM) and incubated in the same conditions. DMSO controls were performed to evaluate a possible solvent cytotoxicity, while pure DMSO was used as a cytotoxic drug. After the established incubation time with compounds, MTT (5 mg/mL) in PBS (Sigma-Aldrich) was added (10 μL) to each well. After 3 h incubation at 37 °C, in 5% CO2, the supernatant was removed. The formazan crystals were solubilized using ethanol/DMSO (1:1) (100 μL), and the absorbance values were determined at 570 nm on the microplate reader Victor3 from PerkinElmer Life Sciences.

[5] = test system: human liver hepatocellular (HepG2) cells; test: Cell viability (MTT) assay in HepG2 cells; assay type: cell-based; details: at 100 μM
Experimental: as §1

Chain of acetylcholinesterase (AChE) (O42275 24-633): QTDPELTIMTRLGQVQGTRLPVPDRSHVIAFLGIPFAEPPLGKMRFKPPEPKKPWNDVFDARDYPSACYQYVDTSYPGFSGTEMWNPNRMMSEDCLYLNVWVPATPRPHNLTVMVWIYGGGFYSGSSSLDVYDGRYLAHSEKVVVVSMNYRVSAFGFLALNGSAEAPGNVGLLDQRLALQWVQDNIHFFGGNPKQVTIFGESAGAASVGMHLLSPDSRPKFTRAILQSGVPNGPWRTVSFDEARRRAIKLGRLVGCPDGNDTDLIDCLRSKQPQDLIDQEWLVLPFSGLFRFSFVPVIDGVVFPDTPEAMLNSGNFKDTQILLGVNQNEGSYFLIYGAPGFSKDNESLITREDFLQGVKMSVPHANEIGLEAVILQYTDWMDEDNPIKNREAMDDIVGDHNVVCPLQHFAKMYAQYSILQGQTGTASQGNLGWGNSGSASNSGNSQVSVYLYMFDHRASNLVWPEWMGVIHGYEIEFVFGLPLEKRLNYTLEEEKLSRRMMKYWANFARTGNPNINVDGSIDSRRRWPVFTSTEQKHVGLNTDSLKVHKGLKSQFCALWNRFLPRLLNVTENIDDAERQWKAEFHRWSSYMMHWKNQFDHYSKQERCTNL

In the case of `O=c1cc(-c2ccc(N3CCOCC3)cc2)oc2c([C@@H]3O[C@H](CO)[C@@H](O)[C@H](O)[C@H]3O)c(O)cc(O)c12` [Compound 19, 8-(β-D-Glucopyranosyl)-5,7-dihydroxy-4′-(morpholin-4-yl)flavone], the “Neuroprotective effect against H2O2-induced toxicity (MTT cell viability)” value [1] is reported as “able to produce statistically significant differences when compared to H2O2 controls”, the “Neuroprotective effect against H2O2-induced toxicity (MTT cell viability)” value ([1]; listed as 37) is reported as “fully rescued” and the “MTT reduction (% control)” value [2] is reported as 138.5 ± 3.6%. The inhibition at 100 µM [3] was 18%, the IC50 [4] was no less than 100 µM and the “Cytotoxicity towards HepG2 cells” value [5] was “did not show any cytotoxicity”.
